Results reported in article PMC3859608, “C-Terminus of the B-Chain of Relaxin-3 Is Important for Receptor Activity” (PLoS ONE, 2013).
“Also recorded” adds a separate entry of the source.

Columns and labels:
[1] = target: T1, RXFP3 (Homo sapiens, UniProt Q9NSD7); details: in presence of orthosteric agonist; H3 amide or H3 acid; cited from earlier work
T1 construct: expressed in transfected cells
T1 sequence (Q9NSD7 1-469): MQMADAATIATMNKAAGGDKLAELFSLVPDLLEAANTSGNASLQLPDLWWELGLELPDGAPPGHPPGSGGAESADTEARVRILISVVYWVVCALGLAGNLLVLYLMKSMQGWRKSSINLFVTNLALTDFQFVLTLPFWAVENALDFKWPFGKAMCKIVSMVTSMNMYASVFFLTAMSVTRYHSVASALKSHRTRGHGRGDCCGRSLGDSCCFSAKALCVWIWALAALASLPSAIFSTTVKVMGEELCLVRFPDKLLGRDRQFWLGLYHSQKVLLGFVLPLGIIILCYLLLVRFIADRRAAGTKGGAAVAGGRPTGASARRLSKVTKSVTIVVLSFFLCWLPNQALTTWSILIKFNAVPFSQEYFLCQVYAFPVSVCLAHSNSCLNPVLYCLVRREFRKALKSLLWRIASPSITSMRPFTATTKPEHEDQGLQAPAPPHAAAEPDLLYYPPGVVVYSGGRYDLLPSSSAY
From the text: In this endeavour, a small molecule, 135PAM1, has recently been discovered by Alvarez-Jaimes et al. They reported that it was an allosteric modulator of RXFP3 that worked in the presence of an orthosteric agonist, H3 relaxin.

[2] = target: T1, RXFP3; assay: Competition binding, Eu-labelled I5/R3, CHO-K1 cells expressing RXFP3; details: CHO-K1 cells stably expressing RXFP3; Eu-I5/R3 0.5 nM; one site competition fit; mean ± SEM, n in parentheses in cell (3; H3 amide 4), triplicate determinations; ** p<0.01 vs H3 acid (H3 amide, H3 A-acid); read-out: RXFP3 Eu-H3/I5 pKi (converted)
Protocol: (§1) The receptor binding affinity of the peptides was measured using CHO-K1 cells stably expressing RXFP3 and RXFP4. The competition binding assays were carried out as previously described, [27]. Briefly, a single concentration of Eu-labelled I5/R3 (0.5 nM) or Eu-labelled mouse INSL5 (2.5 nM) were used in presence of increasing concentration of peptides. The data were analyzed using GraphPad PRISM 5 (GraphPad Inc., San Diego, USA). The europium binding curves were fitted to a one site competition curve and the pKi values were expressed as the mean ± SEM of at least three independent experiments with triplicate determinations within each assay.
(§2) Figure 2 Receptor binding affinity (pKi) and cAMP activity (pEC-50) curves of H3 relaxin and its variants at RXFP3. A) Competition binding curves of H3 relaxin variants using a single concentration of Eu-I5/R3 (0.5 nM) in the presence of increasing concentrations of the H3 relaxin peptides. B) RXFP3 activation curves of H3 relaxin variants measured in a cAMP activity assay in the presence of 5 µM forskolin. The data were expressed as mean ± SEM. from at least three independent experiments.

[3] = target: T1, RXFP3; assay: cAMP activity (inhibition of forskolin-induced cAMP), CHO-K1 cells expressing RXFP3; assay type: cell-based; details: CHO-K1 RXFP3, pCRE-β-galactosidase reporter; forskolin 1 µM (method) / 5 µM (Fig. 2 legend); peptide 0.01 nM – 1 µM; mean ± SEM, n = 3, triplicate determinations; ** p<0.01 vs H3 acid (H3 amide, H3 A-acid); read-out: RXFP3 cAMP pEC50 (converted)
Protocol: (§3) The ability of the peptides to activate the receptors RXFP3/RXFP4 was assessed by measuring their influence on cAMP signalling in CHO-K1 cells stably expressing RXFP3 or RXFP4 transfected with a pCRE-β-galactosidase reporter gene construct as previously described. A single concentration of forskolin was used to stimulate cAMP signalling in cells expressing RXFP3 (1 µM) and RXFP4 (5 µM) and peptide induced inhibition of cAMP signalling was measured by adding increasing concentrations of the peptides (0.01 nM – 1 µM). The ability of the peptides to inhibit forskolin-induced cAMP response (pEC50) was measured and expressed as mean ± SEM from three independent experiments with triplicate determinations within each assay. The inhibition curves were fitted to a single-site sigmoidal dose-response curve with variable slope using Graphpad PRISM 5.
as §2

[4] = target: T2, RXFP4 (Homo sapiens, UniProt Q8TDU9); assay: Competition binding, Eu-labelled mouse INSL5, CHO-K1 cells expressing RXFP4; details: CHO-K1 cells stably expressing RXFP4; Eu-labelled mouse INSL5 2.5 nM; one site competition fit; mean ± SEM, n = 3, triplicate determinations; vs H3 acid: * H3 amide, ** p<0.01 H3 A-acid; read-out: RXFP4 Eu-INSL5 pKi (converted)
T2 construct: expressed in transfected cells
Protocol: as §1
(§4) Figure 3 Receptor binding affinity (pKi) and cAMP activity (pEC-50) curves of H3 relaxin and its variants at RXFP4. A) Competition binding curves of H3 relaxin variants at RXFP4 using a single concentration of Eu-INSL5 (2.5 nM) in the presence of increasing concentrations of the H3 relaxin peptides. B) RXFP4 activation curves of H3 relaxin variants measured in a cAMP activity assays in the presence of 1 µM forskolin. The data were expressed as mean ± SEM from at least three independent experiments.

[5] = target: T2, RXFP4; assay: cAMP activity (inhibition of forskolin-induced cAMP), CHO-K1 cells expressing RXFP4; assay type: cell-based; details: CHO-K1 RXFP4, pCRE-β-galactosidase reporter; forskolin 5 µM (method) / 1 µM (Fig. 3 legend); peptide 0.01 nM – 1 µM; mean ± SEM, n = 3, triplicate determinations; vs H3 acid: * H3 amide, ** p<0.01 H3 A-acid; read-out: RXFP4 cAMP pEC50 (converted)
Protocol: as §3, §4

[6] = tested on: RXFP1; details: cited from earlier work
From the text: (§5) It is a neuropeptide that is primarily expressed in the brain with the highest level detected in the nucleus incertus (NI) of the mouse, [8], rat, macaque and human. Neurons from the NI project to many regions of the brain where its distribution overlaps w ...

[7] = target: T1, RXFP3; details: cited from earlier work
From the text: as §5

[8] = target: T2, RXFP4; details: sentence cites ref 7; cited from earlier work
From the text: as §5

[9] = target: T2, RXFP4; details: both A and B chain C-termini amidated vs acid; cited from earlier work
From the text: Relaxin-3 is closely related to insulin-like peptide 5 (INSL5) as they both belong to the same branch in the phylogenetic tree of the relaxin family. In addition, the native receptors of relaxin-3 and INSL5, RXFP3 and RXFP4 respectively, belong to the same class of G-protein coupled receptors. On the basis of such close relationship between ligands (relaxin-3 and INSL5) and receptors (RXFP3 and RXFP4), it is most likely that relaxin-3 interacts with RXFP3 in a similar way to INSL5 interaction with RXFP4. Therefore, we tested all four H3 relaxin analogues on RXFP4. As expected, the H3 acid pept ... || The bioactivity of many polypeptide hormones often requires a form of post-translational modification of their precursors. An example of a widespread modification is C-terminal amidation which often leads to an increase in bioactivity of peptides [32]–[35]. In some cases, amidation of the C-terminus has been reported to have detrimental effect on the activity of peptides, [36]. […] In the case of relaxin family peptides, H2 relaxin and INSL3, both p ...

T2 sequence (Q8TDU9 whole entry, species assumed): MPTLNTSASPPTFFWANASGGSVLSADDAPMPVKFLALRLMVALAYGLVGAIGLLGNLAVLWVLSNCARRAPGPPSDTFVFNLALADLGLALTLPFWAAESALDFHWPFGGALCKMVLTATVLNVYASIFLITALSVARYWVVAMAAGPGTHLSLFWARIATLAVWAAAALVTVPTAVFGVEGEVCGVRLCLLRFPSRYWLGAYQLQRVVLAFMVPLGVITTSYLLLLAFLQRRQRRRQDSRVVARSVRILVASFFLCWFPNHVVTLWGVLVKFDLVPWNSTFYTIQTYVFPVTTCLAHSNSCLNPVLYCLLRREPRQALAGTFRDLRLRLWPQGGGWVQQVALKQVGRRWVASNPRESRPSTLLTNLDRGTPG

COc1ccc2[nH]cc(CCN(Cc3ccc(Cl)c(Cl)c3)C(=O)Nc3cc(C(F)(F)F)cc(C(F)(F)F)c3)c2c1 [135PAM1]
allosteric activity of 135PAM1, dependence on H3 relaxin C-terminus [1]: active only when used with the non-native amidated form of H3 relaxin; also recorded: unable to act in the presence of the native form (acid) of H3 relaxin

CC[C@H](C)[C@@H]1NC(=O)[C@H](Cc2ccccc2)NC(=O)[C@H](CCC(=O)O)NC(=O)[C@H](CCCNC(=N)N)NC(=O)CNC(=O)[C@@H](NC(=O)[C@H](CC(C)C)NC(=O)[C@H](CCCNC(=N)N)NC(=O)[C@@H](NC(=O)CNC(=O)[C@H](Cc2ccc(O)cc2)NC(=O)[C@@H]2CCCN2C(=O)[C@H](C)NC(=O)[C@H](C)NC(=O)[C@@H](N)CCCNC(=N)N)C(C)C)CSSC[C@@H]2NC(=O)[C@@H](NC(=O)[C@H](CO)NC(=O)[C@H](CO)NC(=O)[C@H](CO)NC(=O)[C@H](CC(C)C)NC(=O)CNC(=O)[C@H](C)NC(=O)[C@H](CC(C)C)NC(=O)[C@@H](NC(=O)[C@@H](N)CC(=O)O)C(C)C)CSSC[C@H](NC(=O)CNC(=O)[C@H](Cc3c[nH]c4ccccc34)NC(=O)[C@H](CCCCN)NC2=O)C(=O)N[C@@H](CO)C(=O)N[C@@H](CCCCN)C(=O)N[C@@H](CO)C(=O)N[C@@H](CCC(=O)O)C(=O)N[C@@H]([C@@H](C)CC)C(=O)N[C@@H](CO)C(=O)N[C@@H](CO)C(=O)N[C@@H](CC(C)C)C(=O)N[C@H](C(N)=O)CSSC[C@@H](C(=O)NCC(=O)NCC(=O)N[C@@H](CO)C(=O)N[C@@H](CCCNC(=N)N)C(=O)N[C@@H](Cc2c[nH]c3ccccc23)C(N)=O)NC(=O)[C@H]([C@@H](C)O)NC(=O)[C@H](Cc2ccccc2)NC(=O)[C@H]([C@@H](C)CC)NC(=O)[C@H](C(C)C)NC(=O)[C@H](C)NC(=O)[C@H](CCCNC(=N)N)NC1=O [H3 amide]
Ki [2]: 158 nM
EC50 [3]: 7.24 nM
Ki [4]: 39.8 nM
EC50 [5]: 4.17 nM

H3 relaxin: neuropeptide with two chains (A and B) connected by three disulfide bonds
interaction with RXFP1 [6]: with high affinity
binding and activation of RXFP3 [7]: binds and activates its cognate receptor
interaction with RXFP4 [8]: with high affinity

INSL5: insulin-like peptide 5; native ligand of RXFP4 (Insulin-like peptide INSL5 B … KESVRLCGLEYIRTVIYICASSRW; Insulin-like peptide INSL5 A … QDLQTLCCTDGCSMTDLSALC; UniProt Q9Y5Q6 23-46; Q9Y5Q6 115-135, looked up)
C-terminus requirement for RXFP4 activity of INSL5 [9]: need to be an acid for full RXFP4 activity; also recorded: C-termini were required to be free (acid) for high RXFP4 activity
